Results taken from patent publication US20230324400A1, “MULTIPLEXED PROTEOMICS AND PHOSPHOPROTEOMICS” (The General Hospital Corporation, priority 2015, published 2023).
pIC50: −log10 of the molar value.

Key:
Assay type in all cases: cell-based
ALK [1] = molecular target: T1, ALK (Homo sapiens, UniProt Q9UM73); assay: Phosphoproteomic analysis of ALK activity after Ceritinib treatment, resistant cell lines; settings: LDKR1-4, 300 nM Ceritinib, 24 hours
Description: (§1) The H3122 parental and LDKR1-4 cell lines were each grown in culture with or without the addition of Ceritinib for 24 hours, and harvested cells were subsequently processed for both proteomic and phosphoproteomic analyses. Specifically, each of the cell lines was cultured in RPMI-1640 media supplemented with 10% FBS, 100 units/mL penicillin, and 100 μg/mL streptomycin. Cells were treated for 24 hours with 300 nM Ceritinib (also known as LDK378). Cells were collected, and the cell pellets were resuspended in mammalian lysis buffer and lysed by passage through a 21 gauge needle. The lysate was centrifuged at 15,000×g for 5 minutes at 4° C., and insoluble debris was discarded.
(§2) The lysates were then prepared for mass spectrometry analysis. Samples were reduced with DTT, alkylated with iodoacetamide, and precipitated with methanol/chloroform. Protein was digested overnight at room temperature with endoproteinase Lys-C(obtained from Wako Chemicals, Richmond, VA) followed by digestion with sequencing-grade trypsin (obtained from Promega Corp., Madison, WI) for 6 hours at 37° C. Samples were quenched with 1% TFA and desalted using Sep-Pak C18 (SPE) cartridges (obtained from Waters Corp., Milford, MA). The peptide concentration of each sample was determined using a BCA assay. […]

[2] = tested on: LDKR1-4 cell lines (Ceritinib-resistant clones of H3122); assay: Ceritinib sensitivity (IC50) of resistant clones LDKR1-4
Description: (§3) In the particular study reported here, resistance to the small molecule ALK inhibitor Ceritinib was studied. The patient-derived cell line H3122 is a NSCLC line with an EML4-ALK fusion, and it is sensitive to Ceritinib. To simulate the clinical development of therapeutic resistance following initial treatment, this cell line was cultured over a period of 6 months with low but increasing doses of Ceritinib. […] These clones were expanded and comprise the cell lines LDKR1-4.
(§4) FIG. 5 is a schematic diagram showing the development of the cell lines. The ALK-positive H3122 cell line, which is sensitive to the ALK inhibitor Ceritinib (ICso=53 nM), was treated with escalating doses of Ceritinib over a period 6 months. Resistant clones LDKR1-4 were obtained with ICso values in a range from 1494 nM to 3897 nM.

[3] = tested on: H3122 cell line (NSCLC, EML4-ALK fusion); assay: Ceritinib sensitivity (IC50) of parental H3122 cell line; settings: Homo sapiens, NCI-H3122; ALK-positive H3122 parental cell line
Description: as §3, §4

ALK [4] = molecular target: T1, ALK; assay: Phosphoproteomic analysis of ALK phosphorylation after Ceritinib treatment, parental H3122; settings: 300 nM Ceritinib, 24 hours
Description: as §1, §2

T1 sequence (Q9UM73 with tags, fused parts or gaps): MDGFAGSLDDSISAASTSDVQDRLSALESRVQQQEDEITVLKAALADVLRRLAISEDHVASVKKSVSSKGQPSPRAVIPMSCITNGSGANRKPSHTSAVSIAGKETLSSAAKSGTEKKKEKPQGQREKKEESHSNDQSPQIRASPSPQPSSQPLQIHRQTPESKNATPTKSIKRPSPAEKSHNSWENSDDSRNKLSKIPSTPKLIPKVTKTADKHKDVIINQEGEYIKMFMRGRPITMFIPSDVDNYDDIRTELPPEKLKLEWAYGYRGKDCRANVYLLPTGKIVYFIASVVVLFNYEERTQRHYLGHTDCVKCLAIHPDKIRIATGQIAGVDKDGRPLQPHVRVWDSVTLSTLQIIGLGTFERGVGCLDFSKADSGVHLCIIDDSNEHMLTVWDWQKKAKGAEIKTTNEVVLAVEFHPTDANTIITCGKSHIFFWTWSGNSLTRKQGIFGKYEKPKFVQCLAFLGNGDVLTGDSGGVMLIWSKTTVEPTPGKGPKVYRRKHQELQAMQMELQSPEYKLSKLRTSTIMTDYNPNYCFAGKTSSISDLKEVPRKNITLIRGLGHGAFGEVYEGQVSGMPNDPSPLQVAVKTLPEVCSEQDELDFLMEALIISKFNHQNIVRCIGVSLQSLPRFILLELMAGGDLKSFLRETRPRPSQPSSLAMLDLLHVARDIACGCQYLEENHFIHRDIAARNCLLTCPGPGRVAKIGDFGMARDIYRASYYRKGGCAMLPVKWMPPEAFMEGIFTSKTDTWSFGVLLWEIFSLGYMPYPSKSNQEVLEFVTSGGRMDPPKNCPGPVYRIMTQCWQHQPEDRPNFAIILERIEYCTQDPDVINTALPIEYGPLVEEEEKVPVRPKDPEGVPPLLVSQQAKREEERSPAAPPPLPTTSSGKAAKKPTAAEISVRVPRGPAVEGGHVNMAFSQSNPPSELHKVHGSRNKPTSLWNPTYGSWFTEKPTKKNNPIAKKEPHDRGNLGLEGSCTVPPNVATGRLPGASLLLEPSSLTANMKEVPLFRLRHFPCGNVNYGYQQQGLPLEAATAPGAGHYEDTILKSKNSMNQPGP

pIC50 ([2]; Homo sapiens, NCI-H3122, resistant clones LDKR1-4, obtained after 6 months of escalating doses of Ceritinib): 5.41 to 5.83
ALK Thr 1506/Tyr 1507/Ser 1509 phosphorylation, ratio to parental cell line with no drug (ALK [4]): decreasing fourfold upon drug treatment
ALK Tyr 1078 phosphorylation, ratio to parental cell line with no drug (ALK [4]): decreased upon drug treatment
Structure (SMILES): Cc1cc(Nc2ncc(Cl)c(Nc3ccccc3S(=O)(=O)C(C)C)n2)c(OC(C)C)cc1C1CCNCC1 [Ceritinib]
Inhibition of ALK activity in resistant cell lines (ALK [1]): continued to be effective at inhibiting ALK activity in at least three of the four resistant cell lines
IC50 of resistant clones relative to parental sensitive cell line ([2]; four single resistant clones LDKR1-4 vs parental H3122): at least twenty times higher
pIC50 [3]: 7.28
